According to DBAASP:
≈ marks a conversion by molar mass, not a printed value. Where “and” joins values, the source holds several entries; their conditions need not be identical. Identical values can stand only once.

Experiments:
Experiment in all cases: ≥ marks a high value that may be exact or a test limit, other limits are often not marked, values filed in µg/mL are converted to µM
[1] = system: Neisseria gonorrhoeae FA19
[2] = system: Neisseria gonorrhoeae F62
Vibrio alginolyticus = system: Vibrio alginolyticus
[3] = system: Streptococcus pneumoniae BCRC 10794
[4] = system: Staphylococcus sp. BCRC 10451
[5] = system: Vibrio harveyi BCRC 13812
[6] = system: Staphylococcus aureus BCRC 10780
[7] = system: Micrococcus luteus BCRC 11034
[8] = system: Colletotrichum graminicola
Rhizoctonia solani = system: Rhizoctonia solani
Fusarium oxysporum = system: Fusarium oxysporum
[9] = system: Staphylococcus aureus ATCC 25923
[10] = system: Escherichia coli ATCC 25922
[11] = system: Staphylococcus epidermidis RP62A
[12] = system: Candida albicans ATCC 90028
[13] = system: Enterococcus faecalis ATCC 29212
[14] = system: Proteus mirabilis ATCC 25933
[15] = system: Enterobacter cloacae HNTCC 53001
[16] = system: Klebsiella pneumoniae KK3 9904
[17] = system: Staphylococcus aureus NCTC 8325
[18] = system: Pseudomonas aeruginosa ATCC 27853
[19] = system: Staphylococcus aureus DSM 11729
[20] = system: Acinetobacter baumannii AL1851-ΔLpxA
[21] = system: Acinetobacter baumannii ATCC 19606
[22] = system: Candida parapsilosis CEMTC 2529
[23] = system: Acinetobacter baumannii Al1852-ΔLpxD
[24] = system: Citrobacter freundii DSM 30029
[25] = system: Staphylococcus epidermidis DSM 28319
[26] = system: Candida albicans ATCC 10231
[27] = system: Candida tropicalis CEMTC 2385
[28] = system: Candida glabrata CEMTC 2563
[29] = system: Klebsiella pneumoniae DSM 789
Shigella sonnei DSM 5570 = system: Shigella sonnei DSM 5570
[30] = system: Candida albicans CEMTC 34
[31] = system: Pseudomonas aeruginosa DSM 1117
[32] = system: Escherichia coli DSM 1103
[33] = system: Salmonella enterica DSM 17058
[34] = system: Escherichia coli ATCC 35218
[35] = system: Staphylococcus aureus ATCC 25325
[36] = system: Pseudomonas aeruginosa ATCC 9027
[37] = system: Bacillus cereus ATCC 11778
[38] = system: Listeria innocua ATCC 33090T
[39] = system: Enterococcus faecalis JCM 5803T
[40] = system: Lactiplantibacillus plantarum ATCC 14917
[41] = system: Latilactobacillus sakei subsp. sakei JCM 1157T

CC(C)[C@H](NC(=O)[C@@H]1CSSC[C@H](N)C(=O)N[C@@H](Cc2ccc(O)cc2)C(=O)N[C@H]2CSSC[C@H](NC(=O)[C@H](Cc3ccccc3)NC(=O)[C@H](CCCN=C(N)N)NC(=O)[C@H](CCCN=C(N)N)NC(=O)[C@H](CCCN=C(N)N)NC2=O)C(=O)N[C@@H](C(C)C)C(=O)N1)C(N)=O [CYCRRRFCVCV]
MIC [1]: 10 µM (≈ 14 µg/mL) | MIC [2]: 3.2 µM (≈ 4.49 µg/mL)

CC[C@H](C)[C@H](NC(=O)[C@H](Cc1ccccc1)NC(C)=O)C(=O)N[C@@H](Cc1ccccc1)C(=O)N[C@@H](Cc1cnc[nH]1)C(=O)N[C@H](C(=O)N[C@H](C(=O)N[C@@H](CCCCN)C(=O)NCC(=O)N[C@@H](CC(C)C)C(=O)N[C@@H](Cc1ccccc1)C(=O)N[C@@H](Cc1cnc[nH]1)C(=O)N[C@@H](C)C(=O)NCC(N)=O)[C@@H](C)CC)[C@@H](C)CC [FIFHIIKGLFHAG]
MIC (Vibrio alginolyticus): 4.17 µM (≈ 6.42 µg/mL) | MIC [3]: 16.7 µM (≈ 25.7 µg/mL) | MIC [4]: 4.17 µM (≈ 6.42 µg/mL) | MIC [5]: 4.17 µM (≈ 6.42 µg/mL) | MIC [6]: 4.17 µM (≈ 6.42 µg/mL) | MIC [7]: ≥ 33.3 µM

CC(C)[C@H](NC(=O)[C@@H]1CCCN1C(=O)[C@@H](N)Cc1ccccc1)C(=O)N[C@H](C(=O)N[C@@H](Cc1c[nH]c2ccccc12)C(=O)N1CCC[C@H]1C(=O)N[C@H](C(=O)N[C@@H](CCCCN)C(=O)N[C@@H](Cc1c[nH]c2ccccc12)C(=O)N[C@@H](Cc1c[nH]c2ccccc12)C(=O)N[C@@H](CCCCN)C(=O)NCC(N)=O)[C@@H](C)O)[C@@H](C)O [FPVTWPTKWWKG]
MIC [8]: ≥ 163 µM | MIC (Rhizoctonia solani): ≥ 41.8 µM | MIC (Fusarium oxysporum): ≥ 163 µM | MIC [9]: > 125 µM and 163 µM | MIC [10]: > 125 µM and 163 µM

CC[C@H](C)[C@H](NC(=O)CNC(=O)[C@H](CCCCN)NC(=O)[C@H](Cc1ccccc1)NC(=O)[C@@H](NC(=O)[C@H](CCCCN)NC(=O)[C@H](CCCCN)NC(=O)[C@H](CC(C)C)NC(=O)[C@H](C)NC(=O)[C@H](CCCCN)NC(=O)[C@H](CC(C)C)NC(=O)CN)C(C)C)C(=O)N[C@@H](Cc1cnc[nH]1)C(=O)N[C@@H](CCCCN)C(=O)N[C@@H](C)C(=O)N[C@H](C(=O)N[C@@H](CCCCN)C(=O)N[C@@H](CC(C)C)C(=O)N[C@H](C(=O)N[C@@H](CC(N)=O)C(=O)N[C@@H](CCCCN)C(=O)N[C@@H](Cc1cnc[nH]1)C(=O)N[C@H](C(=O)N[C@@H](CCC(N)=O)C(=O)O)C(C)C)[C@@H](C)CC)[C@@H](C)CC [GLKALKKVFKGIHKAIKLINKHVQ]
MIC [11]: 10 µM (≈ 27.1 µg/mL) | MIC [12]: ≥ 80 µM | MIC [13]: > 80 µM | MIC [14]: ≥ 80 µM | MIC [15]: 2.5 µM (≈ 6.78 µg/mL) | MIC [16]: 5 µM (≈ 13.6 µg/mL) | MIC [17]: 20 µM (≈ 54.2 µg/mL) | MIC [18]: 5 µM (≈ 13.6 µg/mL) | MIC [10]: 5 µM (≈ 13.6 µg/mL)

NCCCC[C@H](NC(=O)[C@H](Cc1ccccc1)NC(=O)[C@H](Cc1ccccc1)NC(=O)[C@H](CCCCN)NC(=O)[C@H](Cc1ccccc1)NC(=O)[C@H](Cc1ccccc1)NC(=O)[C@H](CCCCN)NC(=O)[C@H](Cc1ccccc1)NC(=O)[C@H](Cc1ccccc1)NC(=O)[C@@H](N)CCCCN)C(N)=O [KFFKFFKFFK]
MIC [19]: 16 µM (≈ 22.6 µg/mL) | MIC [20]: 16 µM (≈ 22.6 µg/mL) | MIC [21]: 32 µM (≈ 45.2 µg/mL) | MIC [22]: 20 µM (≈ 28.3 µg/mL) | MIC [23]: ≥ 32 µM | MIC [24]: 4 µM (≈ 5.65 µg/mL) | MIC [25]: 0.5 µM (≈ 0.706 µg/mL) | MIC [26]: 20 µM (≈ 28.3 µg/mL) | MIC [27]: 10 µM (≈ 14.1 µg/mL) | MIC [28]: 20 µM (≈ 28.3 µg/mL) | MIC [29]: ≥ 32 µM | MIC (Shigella sonnei DSM 5570): 2 µM (≈ 2.83 µg/mL) | MIC [30]: 20 µM (≈ 28.3 µg/mL) | MIC [31]: 1 µM (≈ 1.41 µg/mL) | MIC [32]: 2 µM (≈ 2.83 µg/mL) | MIC [33]: 16 µM (≈ 22.6 µg/mL)

CC(C)C[C@H](NC(=O)CNC(=O)[C@@H](NC(=O)[C@H](Cc1cnc[nH]1)NC(=O)[C@H](CCCCN)NC(=O)[C@H](CC(C)C)NC(=O)[C@@H](N)CCCCN)C(C)C)C(=O)N[C@@H](Cc1cnc[nH]1)C(=O)N[C@H](C(=O)NCC(=O)N[C@@H](CCCCN)C(=O)N[C@@H](CC(C)C)C(=O)N[C@@H](CCCCN)C(=O)O)C(C)C [KLKHVGLHVGKLK]
MIC [34]: ≥ 43.4 µM | MIC [13]: 52.3 µM (≈ 76.2 µg/mL) | MIC [18]: 56 µM (≈ 81.6 µg/mL) | MIC [35]: ≥ 40.2 µM

CC(C)C[C@H](NC(=O)[C@@H](NC(=O)[C@H](CCCCN)NC(=O)[C@H](CCCCN)NC(=O)[C@H](CC(C)C)NC(=O)[C@@H](N)CC(C)C)C(C)C)C(=O)N[C@@H](CCCCN)C(=O)N[C@@H](C)C(=O)N[C@@H](C)C(=O)N[C@@H](C)C(N)=O [LLKKVLKAAA]
MIC [34]: ≥ 50 µM | MIC [36]: > 50 µM | MIC [37]: ≥ 50 µM | MIC [9]: > 50 µM

CC[C@H](C)[C@H](NC(=O)CNC(=O)CNC(=O)[C@@H]1CCCN1C(=O)[C@@H](N)[C@@H](C)O)C(=O)N[C@@H](CC(=O)O)C(=O)N[C@@H](Cc1ccccc1)C(=O)N[C@H](C(=O)N[C@@H](CO)C(=O)NCC(=O)NCC(=O)N1CCC[C@H]1C(=O)N[C@@H](Cc1cnc[nH]1)C(=O)N[C@H](C(=O)N[C@@H](C)C(=O)N[C@@H](CCC(N)=O)C(=O)N[C@@H](CC(=O)O)C(=O)N[C@H](C(=O)N[C@@H](CC(C)C)C(=O)N[C@@H](CC(N)=O)C(=O)N[C@@H](C)C(=O)N[C@H](C(=O)N[C@@H](CCCCN)C(=O)N[C@@H](CC(N)=O)C(=O)N[C@@H](Cc1ccccc1)C(=O)N[C@@H](Cc1ccccc1)C(=O)N[C@@H](CCCCN)C(=O)O)[C@@H](C)CC)C(C)C)C(C)C)[C@@H](C)CC [TPGGIDFISGGPHVAQDVLNAIKNFFK]
MIC [38]: 0.59 µM (≈ 1.68 µg/mL) | MIC [39]: 0.3 µM (≈ 0.853 µg/mL) | MIC [40]: 1.2 µM (≈ 3.41 µg/mL) | MIC [41]: 0.3 µM (≈ 0.853 µg/mL)
